{"source": "patent US20050158323A1", "about": "“Methods of killing tumor cells by targeting internal antigens exposed on apoptotic tumor cells” (Vaccinex, Inc., priority 2003, published 2005)", "molecules": {"B1": {"name": "C35 protein: control C35 protein coated at 2 μg/ml, positive control of the peptide ELISA (protein, UniProt Q9BRT3 2-112, looked up)", "Migration and invasion …": "SGEPGQTSVAPPPEEVEPGSGVRIVVEYCEPCGFEATYLELASAVKEQYPGIEIESRLGGTGAFEIEINGQLVFSKLENGGFPYEKDLIEAIRRASNGETLEKITNSRPPC"}, "B2": {"name": "1B3: mouse monoclonal anti-C35 antibody from hybridoma 1B3, gamma1 isotype, kappa light chain; VH SEQ ID NO:8, VK SEQ ID NO:10 (antibody, listed as Mus sp., V domains shown)", "VH": "EVQLQESGPSLVKPSQTLSLTCSVTGDSITSGYWNWIRKFPGNKLEYVGYISYSGGTYYNPSLKSRISITRDTSKNHYYLQLNSVTTEDTATYYCARGAYYGGAFFPYFDVWGAGTTVTVSS", "VL": "DVQITQSPSFLAASPGETITINCRASKYISKHLVWYQEKPGETKKLLIYSGSTLQSGLPSRFSGSGSGTDFTLTISSLEPEDFAMYYCQQHNEYPLTFGAGTKLELK"}, "B3": {"name": "MAb11 (1B3): 1B3 anti-C35 immunoglobulin variable regions linked to human constant regions (antibody, V domains shown)", "VH": "B2 VH", "VL": "B2 VL"}}, "key": {"Colau.C35 tumor cells": {"test_system": "Colau.C35 tumor cells", "assay": "Combination radioimmunotherapy and chemotherapy, second experiment (FIG. 6, Table 5)", "assay_type": "in vivo, Swiss nude mice", "experimental": "Swiss nude mice were grafted with Colau.C35 cells on day 0. Chemotherapy: Cisplatin administered at 2 mg/kg i.v. on days 15 & 18; 5FU/LV administered at 180/120 mg/kg i.v. on day 18. Radioimmunotherapy: 300 μCi (˜50 μg) of ^131I-labeled murine 1B3 anti-C35 IgG was administered on day 21.\nIn a second experiment, the effect of combination radioimmunotherapy with ^131I labeled 1B3 anti-C35 monoclonal antibody and chemotherapy with cisplatin at 2 mg/kg on day 15 and 18 was tested in Swiss nude mice grafted with Colau.C35 tumor cells. Cispaltin was administered on days 15 and 18 following tumor graft. 300 μCi of ^131I-labeled 1B3 anti-C35 monoclonal antibody was administered on day 21. Tumor growth was followed for up to 10 weeks.\nIn the same experiment, separate groups of Swiss nude mice grafted with Colau.C35 tumor cells were treated with either 5-FluoroUracil (5FU) at 180 mg/kg, together with Leucovorin (LV) at 120 mg/kg or this same chemotherapy regimen administered on day 18 followed by 300 μCi of ^131I-labeled 1B3 anti-C35 monoclonal antibody administered on day 21."}, "[1]": {"settings": "nude mice, cited from earlier work"}, "[2]": {"test_system": "rabbit anti-human C35 polyclonal antibody", "assay": "ELISA of rabbit C35 immune serum on C35 derived 15 amino acid peptides", "assay_type": "binding", "description": "Rabbit polyclonal antibodies were raised to recombinant C35 employing standard immunization methods well known in the art. Overlapping peptides 15 amino acids in length were synthesized corresponding to the 115 amino acid long C35 protein sequence beginning at each amino acid residue from 1 to 101. Peptides are named based on the C35 position of the amino terminus residue in each 15 amino acid peptide. In each peptide that overlapped the cysteine residues at positions 30, 33 and 112 of the natural C35 sequence, alanine was substituted for cysteine to avoid formation of disulfide crosslinked peptides.\nWells of 96 well Maxisorp microtiter plates were coated with either 2 μg C35 protein, or 14 μg or 40 μg of the indicated 15 amino acid peptide derived from the C35 protein sequence and binding of antibodies in the rabbit C35 immune serum was determined as described in detail below. Data in Table 11, below, is shown for the positive and negative controls and for those C35 derived peptides for which positive binding was detected. Variations in the level of peptide binding can be due to either differences in the concentration of specific antibody species, differences in antibody affinity or a combination thereof.\nC35 peptide 15-mers in 100% DMSO, 10 mg/ml, were aliquotted into 1.5 ml tubes, 40 μg/tube, under sterile conditions, then speed vacuumed to remove DMSO. The peptides were resuspended in PBS, pH7.2, 1 ml/tube, mixed well and spun down. Each peptide concentration (“peptide solution”) was 40 μg/ml. Peptide solution should be stored at −20° C. until use. Once thawed, it should be kept at 4° C. for no more than 2 weeks.\nFor 14 μg/ml peptide coated plates, 65 μl PBS, pH7.2 per well was added, followed by 35 μl peptide solution per well (for a total volume of 100 μl/well), and mixed well. For 40 μg/ml peptide coated plates, 100 μl of peptide solution was placed directly on the plate, 100 μl/well. Control C35 protein was diluted into PBS, pH7.2 to 2 μg/ml and added to the plates, 100 μl/well. Coated plates were incubated at room temperature for 2 hours, then 4° C. overnight.\nEach plate was washed 3 times on a plate washer. […] The secondary antibody, HRP (horseradish peroxidase conjugated goat anti-rabbit Fc polyclonal antibody from Zymed, was diluted at a 1:20,000 dilution into assay diluent and added to the plates, 100 μl/well. The plates were incubated at room temperature for 2 hours. Plates were washed 7 times on a plate washer. Substrate was added as per the kit manufacturers instructions and incubated at room temperature in the dark for 15 minutes. The reaction was stopped by adding 2N H2SO4, 100 μl/well. Absorbance at 450-570 nm was read immediately."}, "[3]": {"target": "T1, recombinant human C35 (rhC35) (Homo sapiens, UniProt Q9BRT3)", "T1 construct": "made in house; host or cells: E. coli", "T1 sequence (Q9BRT3 1-115)": "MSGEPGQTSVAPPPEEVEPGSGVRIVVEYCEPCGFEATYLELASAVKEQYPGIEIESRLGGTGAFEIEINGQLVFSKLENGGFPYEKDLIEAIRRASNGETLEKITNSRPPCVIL", "assay": "Epitope localization by Western blot of Lys-C digested rhC35", "assay_type": "binding", "settings": "native C35 sequence numbering; 1 μg/ml antibody", "description": "(§1) To localize the epitope specificity of 1B3 and 1F2 antibodies, recombinant human C35 (rhC35) synthesized with a 6× His tag in E. coli was digested with Lys-C endoproteinase. This enzyme cuts after lysine (K) residues in the protein sequence. […] The full sequence of rhC35, including the amino terminal 6× His tag addition is shown. Amino acid positions are numbered relative to the amino terminal methionine (M) of the native human sequence. Note that digestion at the first and third lysine followed by negatively charged residues is inefficient and some longer combination fragments may be generated. Lys-C endoproteinase was added to purified rhC35 at a […] weight ratio and incubated for 18 hours at 37° C. in 25 mM Tris, pH 8.0. The digest was ethanol precipitated and resolubilized in reducing Tricine sample buffer. After heating 5 minutes at 100° C., samples were separated by electrophoresis on a 16% Tricine gel (Invitrogen). Peptides were transferred to PVDF membranes and the blots depicted in FIG. 10 were either stained with Coomassie blue (lanes 1-3 of both left and right panels) to detect all peptides or processed with one of the following: 1 μg/ml of the murine 1F2 anti-C35 antibody followed by alkaline phosphatase conjugated goat anti-mouse antibody (lane 4 of left panel); 1 μg/ml of the 1B3 anti-C35 immunoglobulin variable regions linked to human constant regions (MAb11) followed by alkaline phosphatase conjugated goat anti-human antibody (lane 5 of left panel); or anti-6× His tag mouse antibody (Amersham) followed by alkaline phosphatase conjugated goat anti-mouse antibody (lane 4 and 5 of right panel). BCIP/NBT substrate was added and developed to detect the secondary reagents. Molecular weight markers are indicated in the flanking lanes of both panels.\n(§2) In FIG. 10, the indicated band A migrates at the position of undigested rhC35. Note that band B stains with 1F2 but not MAb11 (1B3) anti-C35 antibody while band C stains with neither 1F2 nor MAb11 (1B3) antibody. Since bands B and C both do stain with anti-6× His tag antibody to the 6× His tag at the amino terminus of rhC35, it may be concluded that both fragments lack C-terminal peptide fragments. […] This epitope is not required for staining with 1F2."}, "C35 protein [4]": {"target": "T2, C35 protein (Homo sapiens, UniProt Q9BRT3)", "T2 sequence (Q9BRT3 1-115)": "T1 sequence (Q9BRT3 1-115)", "assay": "ELISA and Western Blot of hybridoma antibodies", "assay_type": "binding", "settings": "ELISA and Western Blot assays", "experimental": "(§3) Hybridoma cell lines IF2.4.1 and 1B3.6.1, specific for C35 polypeptides, were prepared using hybridoma technology. (Kohler et al., Nature 256:495 (1975); Kohler et al., Eur. J. Immunol. 6:511 (1976); Kohler et al., Eur. J. Immunol. 6:292 (1976); Hammerling et al., in: Monoclonal Antibodies and T-Cell Hybridomas, Elsevier, N.Y., pp. 571-681 (1981)). Briefly, hybridoma cell lines were generated using standard PEG fusion to the non-secreting myeloma cell line NS-1 (P3/NS1/1-AG4-1, ATCC #TIB-18) of splenocytes from BALB/c mice immunized with syngeneic BCA34 fibroblast tumor cells transduced to overexpress C35. Following PEG fusion to NS-1, the hybridomas were grown in methylcellulose semi-solid media. Approximately 2 weeks later, hybridoma colonies were isolated into 96 well plates and individual supernatants were tested for reactivity with C35 by ELISA, Western blot, and immunohistochemistry. Positive hybridomas colonies were subcloned and screened for reactivity twice to ensure clonality. Antibodies were isolated from hybridoma supernatants by protein G affinity purification using standard methods. […] In addition, we have developed intracellular staining flow cytometry assays for quantitative analysis using antibodies from hybridoma cell line 1F2 conjugated to Alexa-647 flourochrome. Each of these antibodies is distinct, yet both are specific for C35 protein. […]"}, "C35 protein [5]": {"target": "T2, C35 protein", "assay": "Competitive binding ELISA", "settings": "1F2 versus 1B3", "experimental": "as §3"}, "[6]": {"target": "T3, recombinant human C35 (rhC35) (Homo sapiens, UniProt Q9BRT3)", "T3 construct": "made in house; host or cells: E. coli", "T3 sequence (Q9BRT3 1-52)": "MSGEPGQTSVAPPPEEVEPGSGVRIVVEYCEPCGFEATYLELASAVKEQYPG", "assay": "Epitope localization by Western blot of Lys-C digested rhC35", "assay_type": "binding", "settings": "Western blot, 1 μg/ml antibody", "description": "as §1, §2"}, "[7]": {"target": "T4, recombinant human C35 (rhC35) (Homo sapiens, UniProt Q9BRT3)", "T4 construct": "made in house; host or cells: E. coli", "T4 sequence (Q9BRT3 1-104)": "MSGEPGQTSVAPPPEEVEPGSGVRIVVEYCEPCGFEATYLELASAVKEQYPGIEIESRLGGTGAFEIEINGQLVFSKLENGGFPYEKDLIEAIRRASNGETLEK", "assay": "Epitope localization by Western blot of Lys-C digested rhC35", "assay_type": "binding", "settings": "Western blot, 1 μg/ml antibody", "description": "as §1, §2", "remark": "listed apart in the source"}, "[8]": {"settings": "non-toxic dose at indicated schedule"}, "[9]": {"settings": "literature values (footnotes 3-5)"}, "[10]": {"settings": "14 μg/ml peptide coated plates, 100 ng/ml primary antibody (C35 protein control coated at 2 μg/ml)"}, "[11]": {"settings": "40 μg/ml peptide coated plates, 1 μg/ml primary antibody (C35 protein control coated at 2 μg/ml)"}}, "note": "Where two headings read alike, the source gives them in different places.", "data": [{"molecule": "N.N.[Cl][Pt][Cl]", "note": "[Cisplatin alone, cisplatin]", "values": [{"measurement": "inhibition of Colau.C35 tumor growth", "setting": "Colau.C35 tumor cells; cisplatin 2 mg/kg days 15 and 18, 5FU/LV 180/120 mg/kg day 18, 300 μCi ^131I-1B3 day 21", "value": "some inhibition"}, {"measurement": "LCK = Log Cell Kill = TDD/3.32", "setting": "Colau.C35 tumor cells; same regimens", "value": 0.20}, {"measurement": "T−C = difference in time for treated and control tumors to reach a given volume", "setting": "Colau.C35 tumor cells; tumor volume 1200 mm^3, cisplatin 2 mg/kg days 15 and 18, 5FU/LV 180/120 mg/kg day 18, 300 μCi ^131I-1B3 day 21", "value": 5, "unit": "days"}, {"measurement": "TDD = Tumor doubling delay = T−C/tumor volume doubling time of untreated", "setting": "Colau.C35 tumor cells; tumor volume 1200 mm^3, same regimens", "value": 0.66}]}, {"molecule": "O=P1(N(CCCl)CCCl)NCCCO1", "note": "(centres unmarked) [Cyclophosphamide]", "values": [{"measurement": "Maximum Tolerated Dose", "setting": "[1]; [8]", "value": "No toxicity^2"}]}, {"molecule": "Nc1ccn([C@@H]2O[C@H](CO)[C@@H](O)C2(F)F)c(=O)n1", "note": "[Gemcitabine]", "values": [{"measurement": "Maximum Tolerated Dose", "setting": "[1]; [8]", "value": "No toxicity^5"}]}, {"molecule": "CCc1c2c(nc3ccc(OC(=O)N4CCC(N5CCCCC5)CC4)cc13)-c1cc3c(c(=O)n1C2)COC(=O)[C@]3(O)CC", "note": "[Irinotecan]", "values": [{"measurement": "Maximum Tolerated Dose", "setting": "[1]; [9]", "value": 15, "unit": "mg/kg"}]}, {"molecule": "CCC1=C[C@@H]2CN(C1)Cc1c([nH]c3ccccc13)[C@@](C(=O)OC)(c1cc3c(cc1OC)N(C)[C@H]1[C@@](O)(C(=O)OC)[C@H](OC(C)=O)[C@]4(CC)C=CCN5CC[C@]31[C@@H]54)C2", "note": "[Vinorelbine]", "values": [{"measurement": "Maximum Tolerated Dose", "setting": "[1]; [9]", "value": 20, "unit": "mg/kg"}]}, {"molecule": "FPYEKDLLEAIRRAS [Peptide P83]", "values": [{"measurement": "Absorbance @ 450-570 nm", "setting": "[2]; [10]", "value": 0.025}, {"measurement": "Absorbance @ 450-570 nm", "setting": "[2]; [11]", "value": 0.19}]}, {"molecule": "B1", "values": [{"measurement": "Absorbance @ 450-570 nm", "setting": "[2]; [10]", "value": 3.765}, {"measurement": "Absorbance @ 450-570 nm", "setting": "[2]; [11]", "value": 3.5225}]}, {"molecule": "B2", "values": [{"measurement": "epitope specificity", "setting": "[3]", "value": "residues 105-115"}, {"measurement": "binding to recombinant C35 protein", "setting": "C35 protein [4]", "value": "specifically bind recombinant C35 protein"}, {"measurement": "epitope comparison by competition", "setting": "C35 protein [5]", "value": "bind different epitopes of the C35 protein"}]}, {"molecule": "B3", "values": [{"measurement": "staining of approximately 8 kDa band C (in addition lacks residues 53-104)", "setting": "[6]", "value": "neither"}, {"measurement": "staining of approximately 15 kDa band B (lacks C35 residues 105-115)", "setting": "[7]", "value": "not"}]}]}
